Assay results: ChEMBL document CHEMBL3124797, “Copper complexes with phosphonium containing hydrazone ligand: topoisomerase inhibition and cytotoxicity study” (Eur J Med Chem, 2014)
pIC50: −log10 of the molar value.

Tests used:
MRC5 [1] = test: Cytotoxicity against human MRC5 cells after 72 hrs by MTT assay; type: cell-based; conditions: MRC5, 72 h
PC-3 = test: Cytotoxicity against human PC3 cells after 72 hrs by MTT assay; type: functional, cell-based; conditions: PC-3, 72 h
MRC5 [2] = test: Selectivity index, ratio of IC50 for human MRC5 cells to IC50 for human PC3 cells; type: functional
A549 = test: Cytotoxicity against human A549 cells after 72 hrs by MTT assay; type: functional, cell-based; conditions: A549, 72 h

O.O=C(N/N=C/c1cc(C[P+](c2ccccc2)(c2ccccc2)c2ccccc2)ccc1O)c1ccccc1.[Cl-]
pIC50 (MRC5 [1]): 4.91
pIC50 (PC-3): 4.84
Ratio IC50 (MRC5 [2]): 0.85
pIC50 (A549): < 4.52

O=Cc1cc(C[P+](c2ccccc2)(c2ccccc2)c2ccccc2)ccc1O
pIC50 (MRC5 [1]): < 4.52
pIC50 (PC-3): < 4.52
pIC50 (A549): < 4.52
